# Assay results from ChEMBL document CHEMBL1201862, “PubChem BioAssay data set” (2004).
# Activity calls are given as the source filed them.
# Key:
# [1] = growth suppression of beta-catenin-knockout colon cells, dose response, cell-based, HCT116, human colon tumor (AID 1045); assay type: functional;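 note: HCT116 colon tumor cells with beta catenin knocked out; cells exposed to compound for 60 hours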
# [2] = cytotoxicity in KRAS-transformed pancreatic duct cells, primary screen, cell-based, fluorescence, HTS (AID 431); assay type: functional; conditions: Homo sapiens;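 note: cell line used: HPDE-C7K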
# [3] = cytotoxicity in HPDE-C7 cells, cell-based, fluorescence, HTS (AID 430); assay type: functional; conditions: Homo sapiens
# [4] = growth suppression of PTEN-null colon cells, dose response, cell-based, HCT116 PTEN knockout (AID 1047); assay type: functional;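 note: HCT116 colon tumor cells with PTEN knocked out; cells exposed to compound for 60 hours before readout; potency for loss of cell viability measured by luminescence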
# Aminopeptidase N = target: T1, Aminopeptidase N (Plasmodium falciparum FcB1/Columbia, UniProt O96935); assay: P. falciparum M1AAP inhibitors, biochemical, fluorogenic H-Leu-NHMec substrate, 1536-well (AID 1445); design: species or system Plasmodium falciparum 3D7, 3D7
# T1 sequence (O96935 whole entry): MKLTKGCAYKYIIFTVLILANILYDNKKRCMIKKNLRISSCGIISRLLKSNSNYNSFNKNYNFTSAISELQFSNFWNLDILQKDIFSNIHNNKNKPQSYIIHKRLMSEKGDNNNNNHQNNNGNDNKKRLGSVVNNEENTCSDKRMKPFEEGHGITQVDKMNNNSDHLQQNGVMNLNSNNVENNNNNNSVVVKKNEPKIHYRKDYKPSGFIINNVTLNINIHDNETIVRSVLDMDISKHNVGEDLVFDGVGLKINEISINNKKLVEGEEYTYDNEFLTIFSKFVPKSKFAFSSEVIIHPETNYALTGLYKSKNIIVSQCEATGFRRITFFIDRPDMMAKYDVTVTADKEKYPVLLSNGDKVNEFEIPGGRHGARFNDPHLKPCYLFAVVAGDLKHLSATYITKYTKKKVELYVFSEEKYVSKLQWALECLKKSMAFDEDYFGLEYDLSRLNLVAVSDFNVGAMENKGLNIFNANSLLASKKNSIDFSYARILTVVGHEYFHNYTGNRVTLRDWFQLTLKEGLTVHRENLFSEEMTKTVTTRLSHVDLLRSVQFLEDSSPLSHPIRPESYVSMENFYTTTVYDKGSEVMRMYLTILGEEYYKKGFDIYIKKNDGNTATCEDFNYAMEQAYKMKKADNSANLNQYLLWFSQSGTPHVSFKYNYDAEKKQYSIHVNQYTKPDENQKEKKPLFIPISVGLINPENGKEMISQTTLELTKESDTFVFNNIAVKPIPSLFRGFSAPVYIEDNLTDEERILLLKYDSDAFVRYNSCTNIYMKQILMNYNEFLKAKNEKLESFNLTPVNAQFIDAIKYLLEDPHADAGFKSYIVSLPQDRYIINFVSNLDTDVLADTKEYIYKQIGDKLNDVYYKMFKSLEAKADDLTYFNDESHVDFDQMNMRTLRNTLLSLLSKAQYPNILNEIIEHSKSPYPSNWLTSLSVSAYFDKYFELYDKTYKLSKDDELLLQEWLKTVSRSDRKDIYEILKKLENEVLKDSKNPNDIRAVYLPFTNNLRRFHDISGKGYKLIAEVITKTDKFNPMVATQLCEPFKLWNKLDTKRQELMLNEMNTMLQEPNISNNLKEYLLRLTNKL
# [5] = THP-1 cell cytotoxicity, dose response, cytotoxicity control for Vif-APOBEC3G degradation inhibitor project, THP-1 cells (AID 1117359); assay type: functional; conditions: Human immunodeficiency virus 1, THP-1
# [6] = target: T2, Mannose-6-phosphate isomerase (Homo sapiens, UniProt P34949); assay: human PMI inhibitors, high substrate, primary screen, biochemical, fluorescence intensity, high mannose 6-phosphate (AID 1220)
# T2 sequence (P34949 whole entry): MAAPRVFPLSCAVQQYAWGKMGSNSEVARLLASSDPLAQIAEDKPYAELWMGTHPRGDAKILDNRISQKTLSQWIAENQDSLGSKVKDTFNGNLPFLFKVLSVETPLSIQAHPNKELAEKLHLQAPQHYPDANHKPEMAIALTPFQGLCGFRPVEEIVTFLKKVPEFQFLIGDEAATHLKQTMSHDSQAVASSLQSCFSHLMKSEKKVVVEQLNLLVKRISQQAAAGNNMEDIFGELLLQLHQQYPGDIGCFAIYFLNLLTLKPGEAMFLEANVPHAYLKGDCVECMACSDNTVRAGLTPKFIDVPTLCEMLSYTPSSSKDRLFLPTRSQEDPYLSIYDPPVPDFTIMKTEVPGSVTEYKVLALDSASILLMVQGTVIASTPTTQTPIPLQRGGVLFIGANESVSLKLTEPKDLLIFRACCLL
# [7] = target: T2, Mannose-6-phosphate isomerase; assay: inhibitors of human PMI, primary screen, biochemical, fluorescence intensity, coupled assay (AID 1209)
# [8] = target: Peroxisome proliferator-activated receptor gamma/Nuclear receptor coactivator 2 (Homo sapiens, UniProt P37231); assay type: functional;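 note: agonist potency for raising coactivator recruitment to the receptor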
# [9] = target: Peroxisome proliferator-activated receptor gamma/Nuclear receptor coactivator 3 (Homo sapiens, UniProt P37231); assay type: functional;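 note: agonist potency for raising coactivator recruitment to the receptor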
# Chain of Peroxisome proliferator-activated receptor gamma/Nuclear receptor coactivator 3 (P37231 whole entry): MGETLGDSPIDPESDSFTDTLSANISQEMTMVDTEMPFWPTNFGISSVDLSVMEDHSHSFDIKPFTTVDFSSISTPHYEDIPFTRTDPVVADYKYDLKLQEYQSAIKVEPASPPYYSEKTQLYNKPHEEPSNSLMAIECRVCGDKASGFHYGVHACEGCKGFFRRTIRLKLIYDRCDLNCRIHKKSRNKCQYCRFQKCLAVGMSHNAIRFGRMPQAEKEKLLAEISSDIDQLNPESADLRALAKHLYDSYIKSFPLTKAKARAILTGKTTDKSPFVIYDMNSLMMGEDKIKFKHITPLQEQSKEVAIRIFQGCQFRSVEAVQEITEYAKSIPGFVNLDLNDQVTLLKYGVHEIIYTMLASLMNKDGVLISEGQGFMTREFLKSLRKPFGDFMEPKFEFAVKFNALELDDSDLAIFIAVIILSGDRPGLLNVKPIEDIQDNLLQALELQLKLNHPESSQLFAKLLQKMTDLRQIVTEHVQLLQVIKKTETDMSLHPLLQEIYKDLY
# Chain of Peroxisome proliferator-activated receptor gamma/Nuclear receptor coactivator 3 (Q9Y6Q9 whole entry, further chain): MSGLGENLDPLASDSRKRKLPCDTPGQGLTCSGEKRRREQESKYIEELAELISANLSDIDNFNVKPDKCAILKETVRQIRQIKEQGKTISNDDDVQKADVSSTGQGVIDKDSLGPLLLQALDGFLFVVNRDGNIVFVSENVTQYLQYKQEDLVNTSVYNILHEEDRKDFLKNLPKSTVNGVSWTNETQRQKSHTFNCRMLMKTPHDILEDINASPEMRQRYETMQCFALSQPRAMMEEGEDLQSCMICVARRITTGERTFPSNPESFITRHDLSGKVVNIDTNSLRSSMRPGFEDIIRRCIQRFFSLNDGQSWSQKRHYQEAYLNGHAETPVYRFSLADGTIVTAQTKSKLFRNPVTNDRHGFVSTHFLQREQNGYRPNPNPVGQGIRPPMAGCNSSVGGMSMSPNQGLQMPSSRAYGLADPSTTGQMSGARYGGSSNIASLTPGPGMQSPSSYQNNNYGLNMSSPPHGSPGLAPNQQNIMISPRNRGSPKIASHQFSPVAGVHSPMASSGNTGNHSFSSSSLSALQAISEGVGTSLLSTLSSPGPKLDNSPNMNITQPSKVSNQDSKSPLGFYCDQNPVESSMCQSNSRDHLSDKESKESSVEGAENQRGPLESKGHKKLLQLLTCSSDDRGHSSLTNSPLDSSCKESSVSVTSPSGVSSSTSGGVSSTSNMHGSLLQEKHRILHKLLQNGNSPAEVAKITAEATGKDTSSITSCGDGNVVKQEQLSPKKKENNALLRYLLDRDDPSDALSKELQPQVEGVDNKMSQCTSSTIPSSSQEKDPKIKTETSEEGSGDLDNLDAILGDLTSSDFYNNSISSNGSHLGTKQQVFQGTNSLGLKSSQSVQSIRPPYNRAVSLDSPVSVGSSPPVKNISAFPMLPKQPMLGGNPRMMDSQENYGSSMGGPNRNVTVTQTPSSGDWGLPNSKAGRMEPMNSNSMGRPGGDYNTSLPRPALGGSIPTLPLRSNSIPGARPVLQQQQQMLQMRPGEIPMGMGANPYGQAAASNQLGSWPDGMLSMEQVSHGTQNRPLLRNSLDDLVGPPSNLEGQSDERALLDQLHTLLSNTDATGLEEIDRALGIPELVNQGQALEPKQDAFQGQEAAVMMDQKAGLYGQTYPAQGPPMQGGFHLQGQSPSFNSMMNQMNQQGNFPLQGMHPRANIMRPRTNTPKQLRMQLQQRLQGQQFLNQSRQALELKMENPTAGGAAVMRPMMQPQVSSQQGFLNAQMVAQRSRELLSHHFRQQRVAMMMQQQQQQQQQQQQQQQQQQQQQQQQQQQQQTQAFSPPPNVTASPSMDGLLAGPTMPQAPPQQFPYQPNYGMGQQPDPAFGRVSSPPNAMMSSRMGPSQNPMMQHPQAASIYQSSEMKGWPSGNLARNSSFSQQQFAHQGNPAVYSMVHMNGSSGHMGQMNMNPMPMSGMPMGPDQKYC
# [10] = target: Peroxisome proliferator-activated receptor gamma/Nuclear receptor coactivator 1 (Homo sapiens, UniProt P37231); assay type: functional;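 note: agonist potency as compounds enhance coactivator SRC-1 recruitment to PPARgamma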
# Chain of Peroxisome proliferator-activated receptor gamma/Nuclear receptor coactivator 1 (P37231 whole entry): as the sequence (P37231 whole entry) above
# Chain of Peroxisome proliferator-activated receptor gamma/Nuclear receptor coactivator 1 (Q15788 whole entry, further chain): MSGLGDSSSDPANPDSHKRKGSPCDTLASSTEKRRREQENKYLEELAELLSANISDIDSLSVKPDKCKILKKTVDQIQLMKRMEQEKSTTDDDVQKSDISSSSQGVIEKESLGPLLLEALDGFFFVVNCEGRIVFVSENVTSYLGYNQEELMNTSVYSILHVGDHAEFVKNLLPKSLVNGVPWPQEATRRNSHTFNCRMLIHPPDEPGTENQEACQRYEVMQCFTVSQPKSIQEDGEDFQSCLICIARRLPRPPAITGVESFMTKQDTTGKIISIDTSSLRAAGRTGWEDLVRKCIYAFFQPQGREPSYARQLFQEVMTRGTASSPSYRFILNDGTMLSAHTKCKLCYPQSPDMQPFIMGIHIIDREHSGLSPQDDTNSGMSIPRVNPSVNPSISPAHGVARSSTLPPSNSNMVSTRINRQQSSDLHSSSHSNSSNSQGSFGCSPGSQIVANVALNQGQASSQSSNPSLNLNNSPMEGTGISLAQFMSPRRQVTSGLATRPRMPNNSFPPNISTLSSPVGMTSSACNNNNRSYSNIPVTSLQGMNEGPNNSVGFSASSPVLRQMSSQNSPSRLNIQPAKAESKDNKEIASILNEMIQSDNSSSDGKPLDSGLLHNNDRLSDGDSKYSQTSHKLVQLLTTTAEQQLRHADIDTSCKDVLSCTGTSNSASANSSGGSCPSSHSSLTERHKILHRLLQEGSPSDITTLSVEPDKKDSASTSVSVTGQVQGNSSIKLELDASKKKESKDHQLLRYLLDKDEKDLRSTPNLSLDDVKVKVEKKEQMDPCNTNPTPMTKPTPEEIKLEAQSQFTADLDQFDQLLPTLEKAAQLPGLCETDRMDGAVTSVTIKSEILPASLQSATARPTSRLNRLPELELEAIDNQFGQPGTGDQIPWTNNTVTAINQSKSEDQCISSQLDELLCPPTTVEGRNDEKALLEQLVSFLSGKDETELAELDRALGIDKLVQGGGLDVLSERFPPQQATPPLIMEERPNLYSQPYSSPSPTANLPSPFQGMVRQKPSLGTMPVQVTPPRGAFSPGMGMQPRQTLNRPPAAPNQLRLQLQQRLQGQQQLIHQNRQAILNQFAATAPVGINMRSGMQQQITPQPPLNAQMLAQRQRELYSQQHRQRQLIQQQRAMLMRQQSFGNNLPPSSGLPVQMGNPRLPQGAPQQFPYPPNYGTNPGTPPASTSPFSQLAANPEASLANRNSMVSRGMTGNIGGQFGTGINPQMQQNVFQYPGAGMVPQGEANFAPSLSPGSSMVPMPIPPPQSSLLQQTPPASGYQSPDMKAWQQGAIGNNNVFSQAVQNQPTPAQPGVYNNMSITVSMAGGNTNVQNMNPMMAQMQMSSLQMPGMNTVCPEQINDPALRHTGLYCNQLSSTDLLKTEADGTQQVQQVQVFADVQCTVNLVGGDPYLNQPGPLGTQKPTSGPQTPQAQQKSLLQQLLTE
# [11] = inhibitors of intracellular T. cruzi replication, confirmation, NIH3T3 host cells, beta-gal luminescence (AID 2044); assay type: functional, cell-based;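 note: intracellular parasites grown in NIH/3T3 mouse fibroblasts as host cells; luminescent beta-galactosidase reporter signal from transgenic T. cruzi replicating inside host cells; inhibitors lower the luminescence signal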
# [12] = cytotoxicity toward NIH3T3 fibroblasts, dose response, counter-screen, cell-based, ATP luminescence, mouse fibroblasts (AID 2010); assay type: functional; conditions: NIH3T3;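 note: cells exposed to compound for about 90 hours before reading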
# [13] = target: T3, DNA repair protein RAD52 homolog (Homo sapiens, UniProt P43351); assay type: functional, biochemical
# T3 sequence (P43351 whole entry): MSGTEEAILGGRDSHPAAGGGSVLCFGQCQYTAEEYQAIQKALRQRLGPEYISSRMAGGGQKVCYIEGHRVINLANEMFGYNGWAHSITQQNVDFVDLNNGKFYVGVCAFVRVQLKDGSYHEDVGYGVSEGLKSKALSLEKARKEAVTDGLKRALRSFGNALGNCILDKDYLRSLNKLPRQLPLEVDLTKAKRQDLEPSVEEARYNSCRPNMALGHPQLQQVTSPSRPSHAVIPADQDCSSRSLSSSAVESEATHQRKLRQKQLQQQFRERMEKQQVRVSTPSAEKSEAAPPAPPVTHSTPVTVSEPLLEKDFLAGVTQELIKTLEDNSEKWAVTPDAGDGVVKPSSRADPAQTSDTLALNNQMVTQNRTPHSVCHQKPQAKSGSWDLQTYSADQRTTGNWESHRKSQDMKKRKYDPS
# BJ [14] = assay: cytotoxicity toward BJ-TERT fibroblasts, dose response, cell-based, RAS-independent, luminescence (AID 1933); assay type: functional; conditions: Homo sapiens
# BJ [15] = assay: cytotoxicity toward BJ-TERT-LT-ST fibroblasts, dose response, cell-based, RAS-independent, luminescence (AID 1935); assay type: functional; conditions: Homo sapiens;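 note: BJ fibroblasts immortalized with TERT plus LT and ST oncogenes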
# [16] = cytotoxicity toward DRD oncogenic fibroblasts, dose response, cell-based, non-viral oncogenic, luminescence (AID 1934); assay type: functional; conditions: Homo sapiens
# Protein RecA = target: T4, Protein RecA (Mycobacterium tuberculosis, UniProt P9WHJ3); assay: Fluorescence Cell-Free Homogeneous Dose Retest to Identify Inhibitors of RecA-Intein Splicing Activity. [Related pubchem assays (depositor defined):AID2097, AID2223, AID489010, AID492950]; assay type: functional
# T4 sequence (P9WHJ3 whole entry): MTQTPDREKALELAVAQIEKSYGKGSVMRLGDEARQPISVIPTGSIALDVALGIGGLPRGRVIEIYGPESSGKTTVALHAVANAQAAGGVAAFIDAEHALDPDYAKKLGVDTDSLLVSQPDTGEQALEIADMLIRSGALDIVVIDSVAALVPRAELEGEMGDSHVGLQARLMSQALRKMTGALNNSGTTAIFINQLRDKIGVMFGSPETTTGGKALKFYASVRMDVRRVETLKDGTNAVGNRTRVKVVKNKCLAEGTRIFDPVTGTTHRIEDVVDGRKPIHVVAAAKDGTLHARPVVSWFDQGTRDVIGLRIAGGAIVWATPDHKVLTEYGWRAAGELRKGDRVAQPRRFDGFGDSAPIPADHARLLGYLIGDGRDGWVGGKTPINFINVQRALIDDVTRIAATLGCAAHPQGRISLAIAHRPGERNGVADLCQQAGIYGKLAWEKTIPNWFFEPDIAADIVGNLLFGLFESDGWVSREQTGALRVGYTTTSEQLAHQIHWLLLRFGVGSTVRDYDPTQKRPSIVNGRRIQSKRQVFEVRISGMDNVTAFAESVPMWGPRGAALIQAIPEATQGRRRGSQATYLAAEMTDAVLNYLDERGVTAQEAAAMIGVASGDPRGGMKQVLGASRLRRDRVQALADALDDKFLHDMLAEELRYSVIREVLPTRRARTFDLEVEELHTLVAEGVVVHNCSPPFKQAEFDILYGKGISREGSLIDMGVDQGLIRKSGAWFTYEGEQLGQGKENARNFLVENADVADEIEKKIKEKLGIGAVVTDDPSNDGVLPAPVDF
# [17] = target: T5, Replicative DNA helicase DnaB (Mycobacterium tuberculosis, UniProt P9WMR3); assay: DnaB intein splicing inhibitors, dose response, biochemical, cell-free fluorescence (AID 449749); assay type: functional
# T5 sequence (P9WMR3 whole entry): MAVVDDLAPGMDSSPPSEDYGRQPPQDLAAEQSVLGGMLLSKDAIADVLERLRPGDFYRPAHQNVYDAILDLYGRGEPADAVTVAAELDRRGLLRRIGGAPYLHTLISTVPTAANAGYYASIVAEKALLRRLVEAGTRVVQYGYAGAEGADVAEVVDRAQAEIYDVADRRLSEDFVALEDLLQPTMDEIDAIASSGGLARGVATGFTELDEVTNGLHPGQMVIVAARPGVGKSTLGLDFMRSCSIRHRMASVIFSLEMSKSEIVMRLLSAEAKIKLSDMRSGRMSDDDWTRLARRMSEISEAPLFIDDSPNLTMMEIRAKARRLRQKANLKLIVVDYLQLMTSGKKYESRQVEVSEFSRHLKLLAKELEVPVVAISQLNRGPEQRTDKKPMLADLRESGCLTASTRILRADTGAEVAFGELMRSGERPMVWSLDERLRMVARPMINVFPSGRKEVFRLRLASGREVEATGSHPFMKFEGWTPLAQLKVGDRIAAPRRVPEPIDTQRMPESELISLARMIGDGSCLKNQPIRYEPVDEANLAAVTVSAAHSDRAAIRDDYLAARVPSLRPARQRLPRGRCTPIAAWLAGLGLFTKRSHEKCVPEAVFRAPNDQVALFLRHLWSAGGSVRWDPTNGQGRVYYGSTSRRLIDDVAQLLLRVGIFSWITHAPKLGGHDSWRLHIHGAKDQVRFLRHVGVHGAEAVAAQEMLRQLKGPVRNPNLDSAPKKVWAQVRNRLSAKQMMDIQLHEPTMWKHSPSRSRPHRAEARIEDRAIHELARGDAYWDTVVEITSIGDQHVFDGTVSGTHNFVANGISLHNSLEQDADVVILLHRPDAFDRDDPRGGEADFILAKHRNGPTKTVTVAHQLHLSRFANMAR
# BJ [18] = assay: cells; assay type: functional, cell-based; conditions: Homo sapiens
smiles,measurement,setting,value
O=S(=O)(CCN(CCS(=O)(=O)C(F)(F)F)CC1CCCO1)C(F)(F)F (centres undefined),EC50,[1],9.32 µM (active)
same,EC50,[2],10.6 µM (active)
same,EC50,[3],11.1 µM (active)
same,EC50,[4],15.3 µM (active)
CCOC(=O)N1CCN(c2c(NCc3ccccc3Cl)c(=O)c2=O)CC1,IC50,Aminopeptidase N,69.3 µM (active)
same,CC50,[5],29.6 µM (active)
CN1C(=O)N(C)C(=O)C2(Cc3c(ccc4ccccc34)N(C)C2)C1=O,IC50,[6],> 50 µM (not active)
same,IC50,[7],> 50 µM (not active)
O=C(Nc1ccc([N+](=O)[O-])cc1)/C(=C/c1cccc([N+](=O)[O-])c1)NC(=O)C1CCCCC1,EC50,[8],> 79.4 µM (not active)
same,EC50,[9],> 79.4 µM (not active)
same,EC50,[10],> 79.4 µM (not active)
COc1cc2nc(N(CCCN(C)C)C(=O)c3ccc(S(=O)(=O)N4CCc5ccccc54)cc3)sc2cc1OC,EC50,[11],< 0.1 µM (active)
same,EC50,[12],16.4 µM (active)
same,AC50,[13],6.54 µM (active)
same,EC50,cells,0.129 µM (active)
CC(C)N(c1ccccc1)c1ccc(NC(=O)CCl)cc1,EC50,BJ [14],0.344 µM (inconclusive)
same,EC50,BJ [15],> 150 µM (inconclusive)
same,EC50,[16],1.37 µM (active)
same,EC50,Protein RecA,0.505 µM (active)
same,AC50,[17],4.41 µM (active)
same,EC50,[11],< 0.1 µM (active)
same,EC50,[12],> 60 µM (not active)
same,EC50,cells,0.102 µM (active)
same,EC50,BJ [18],108 µM (active)
